Patent US9376376B2, “Substitute diphenylamine compounds use thereof as antitumor agents” (SINOCHEM CORPORATION, priority 2012, dated 2016)
Where two headings read alike, the source gives them in different places.

Columns and labels:
[1] = test system: bladder cancer T24; assay: In vitro cell inhibition assay, CCK-8 method, T24; type: cell-based, human; details: bladder cancer T24, CCK-8 method, read-out: The half maximal inhibitory concentration (IC50)
Procedure: (§1) After the cell culture flasks gently shaking, culture fluid was discarded in clean bench. […] Cells were collected and transferred to centrifuge tube. For the non-adherent cells HL-60, CCRF-CEM and MOLT-4, cell flasks were picked up from incubator and then transferred to the centrifuge tubes directly. After cells were collected using centrifuge at 1000 rpm/min for 5 min, the fluid was discarded. Then cells were washed for one time by PBS, discard fluid. Then add some medium, count cells under inverted microscope using blood cell counting plate, according the counting number to making the density of adherent cell was 1×10^5 cells/mL, the non-adherent cell was 2×10^5 cells/mL (the volumes of HL-60, CCRF-CEM, MOLT-4 are smaller than non-adherent cells, these cells added to each well was much more higher). Add 50 μL aliquots to each well of 96-well plates (the density of adherent cells was 5000 cells/well, non-adherent cells was 10000 cells/well). Blank control, Negative control, blank control with compounds and positive control wells were grouped, and three replicate wells were used for each data point in the experiments. Then the cells were cultured in 5% incubator for overnight at 37° C., Then the different concentration compounds were added to each well. […] The absorbance (A) of each well was read at 450 nm using a plate reader.

[2] = test system: colon cancer HT-29; assay: In vitro cell inhibition assay, CCK-8 method, HT-29; type: cell-based, human; details: Colorectal Cancer HT-29, CCK-8 method, read-out: The half maximal inhibitory concentration (IC50)
Procedure: as §1

[3] = test system: leukemia HL-60 cells; assay: In vitro cell inhibition assay, CCK-8 method, HL-60; type: cell-based, human; details: for Proliferation inhibitory effect of the compounds on HL-60 cells (% of Control): CCK-8 method; for IC50: leukemia HL-60, CCK-8 method, read-out: The half maximal inhibitory concentration (IC50)
Procedure: (§2) After the cell culture flasks gently shaking, culture fluid was discarded in clean bench. […] Cells were collected and transferred to centrifuge tube. For the non-adherent cells HL-60, CCRF-CEM and MOLT-4, cell flasks were picked up from incubator and then transferred to the centrifuge tubes directly. After cells were collected using centrifuge at 1000 rpm/min for 5 min, the fluid was discarded. Then cells were washed for one time by PBS, discard fluid. Then add some medium, count cells under inverted microscope using blood cell counting plate, according the counting number to making the density of adherent cell was 1×10^5 cells/mL, the non-adherent cell was 2×10^5 cells/mL (the volumes of HL-60, CCRF-CEM, MOLT-4 are smaller than non-adherent cells, these cells added to each well was much more higher). Add 50 μL aliquots to each well of 96-well plates (the density of adherent cells was 5000 cells/well, non-adherent cells was 10000 cells/well). Blank control, Negative control, blank control with compounds and positive control wells were grouped, and three replicate wells were used for each data point in the experiments. Then the cells were cultured in 5% incubator for overnight at 37° C., Then the different concentration compounds were added to each well. After incubation for 48 h, according to the manufacturer's instructions, CCK-8 reagent (10 μl) was added and incubation was continued for a further 2-4 h. The absorbance (A) of each well was read at 450 nm using a plate reader.

[4] = test system: glioma U251; assay: In vitro cell inhibition assay, CCK-8 method, U251; type: cell-based, human; details: glioma U251, CCK-8 method, read-out: The half maximal inhibitory concentration (IC50)
Procedure: as §1

[5] = test system: hepatocarcinoma SK-HEP-1; assay: In vitro cell inhibition assay, CCK-8 method, SK-HEP-1; type: cell-based, human; details: hepatocarcinoma SK-HEP-1, CCK-8 method, read-out: The half maximal inhibitory concentration (IC50)
Procedure: as §1

[6] = test system: colon cancer COLO-205; assay: In vitro cell inhibition assay, CCK-8 method, COLO-205
[7] = test system: cervical cancer Hela; assay: In vitro cell inhibition assay, CCK-8 method, Hela; type: cell-based, human; details: read-out: The half maximal inhibitory concentration (IC50)
Procedure: as §1

[8] = test system: non-small cell lung cancer NCI-H358; assay: In vitro cell inhibition assay, CCK-8 method, NCI-H358; type: cell-based, human; details: Non-small-cell carcinoma NCI-H358, CCK-8 method, read-out: The half maximal inhibitory concentration (IC50)
Procedure: as §1

[9] = test system: leukemia HL-60 cells; assay: In vitro cell inhibition assay (MTT method), HL-60; type: cell-based, human; details: 48 h
Procedure: (§3) The human cancer cell lines used for this assay were lung cancer A549 and leukemia HL-60.
(§4) The A549 or HL-60 cells were picked up from cell incubator, after washed for twice using PBS, cells were digested by 0.25% trypsin, and then add medium to terminate the digestion. After cells were collected using centrifuge and re-suspended, count cells under inverted microscope and add medium to make a density was 5×10^4 cells/mL. After 100 μL aliquots were added to each well of 96-well microtiter plates, cells were cultured in 5% incubator for overnight at 37° C., then the different concentration compounds were added to each well. After incubation for 48 h, MTT solution was added to each well and plates were then incubated for 4 h. The MTT tetrazolium was reduced to formazan by living cells. Then the formazan crystals were dissolved though adding DMSO to each well. The absorbance was read at 570 nm with a microplate reader.

[10] = test system: prostate cancer DU-145; assay: In vitro cell inhibition assay, CCK-8 method, DU-145; type: cell-based, human; details: Prostate cancer DU-145, CCK-8 method, read-out: The half maximal inhibitory concentration (IC50)
Procedure: as §1

[11] = test system: nasopharyngeal carcinoma CNE; assay: In vitro cell inhibition assay, CCK-8 method, CNE; type: cell-based, human; details: read-out: The half maximal inhibitory concentration (IC50)
Procedure: as §1

[12] = test system: non-small cell lung cancer A549 cells; assay: In vitro cell inhibition assay, CCK-8 method, A549; type: cell-based, human; details: for Proliferation inhibitory effect of the compounds on A549 cells (% of Control): 48 h incubation; for IC50: Non-small-cell carcinoma A549, CCK-8 method, read-out: The half maximal inhibitory concentration (IC50)
Procedure: as §2

[13] = test system: prostate cancer PC-3; assay: In vitro cell inhibition assay, CCK-8 method, PC-3; type: cell-based, human; details: Prostate cancer PC-3, CCK-8 method, read-out: The half maximal inhibitory concentration (IC50)
Procedure: as §1

[14] = test system: leukemia CCRF-CEM; assay: In vitro cell inhibition assay, CCK-8 method, CCRF-CEM; type: cell-based, human; details: read-out: The half maximal inhibitory concentration (IC50)
Procedure: as §1

[15] = test system: intracranial malignant melanoma A375; assay: In vitro cell inhibition assay, CCK-8 method, A375; type: cell-based, human; details: melanoma A375, CCK-8 method, read-out: The half maximal inhibitory concentration (IC50)
Procedure: as §1

[16] = test system: osteosarcoma MG-63; assay: In vitro cell inhibition assay, CCK-8 method, MG-63; type: cell-based, human; details: osteosarcoma MG-63, CCK-8 method, read-out: The half maximal inhibitory concentration (IC50)
Procedure: as §1

[17] = test system: breast cancer MDA-MB-231; assay: In vitro cell inhibition assay, CCK-8 method, MDA-MB-231; type: cell-based, human; details: breast cancer MDA-MB-231, CCK-8 method, read-out: The half maximal inhibitory concentration (IC50)
Procedure: as §1

[18] = test system: leukemia MOLT-4; assay: In vitro cell inhibition assay, CCK-8 method, MOLT-4; type: cell-based, human; details: leukemia MOLT-4, CCK-8 method, read-out: The half maximal inhibitory concentration (IC50)
Procedure: as §1

[19] = test system: pancreatic cancer BXPC-3; assay: In vitro cell inhibition assay, CCK-8 method, BXPC-3; type: cell-based, human; details: pancreatic cancer BXPC-3, CCK-8 method, read-out: The half maximal inhibitory concentration (IC50)
Procedure: as §1

[20] = test system: non-small cell lung cancer NCI-H1650; assay: In vitro cell inhibition assay, CCK-8 method, NCI-H1650; type: cell-based, human; details: Non-small-cell carcinoma NCI-H1650, CCK-8 method, read-out: The half maximal inhibitory concentration (IC50)
Procedure: as §1

[21] = test system: lung cancer A549 cell; assay: In vitro cell inhibition assay (MTT method), A549; type: cell-based, human; details: 48 h incubation
Procedure: as §3, §4

Structure (SMILES): N#Cc1c(Cl)c(Cl)c(Nc2c(Cl)cc(Cl)cc2Cl)c(C#N)c1Cl [Compound 6-93]
- IC50 [1]: 603 nM
- IC50 [2]: 224 nM
- Proliferation inhibitory effect of the compounds on HL-60 cells (% of Control) ([3]; concentration 0.01 μM): 30.19 % of Control
- Proliferation inhibitory effect of the compounds on HL-60 cells (% of Control) ([3]; concentration 0.1 μM): 44.96 % of Control
- Proliferation inhibitory effect of the compounds on HL-60 cells (% of Control) ([3]; concentration 1 μM): 82.05 % of Control
- Proliferation inhibitory effect of the compounds on HL-60 cells (% of Control) ([3]; concentration 10 μM): 87.80 % of Control
- Proliferation inhibitory effect of the compounds on HL-60 cells (% of Control) ([3]; concentration 100 μM): 93.71 % of Control
- IC50 [3]: 85 nM
- IC50 [4]: 1620 nM
- IC50 [5]: 489 nM
- IC50 ([6]; read-out: The half maximal inhibitory concentration (IC50), Colorectal Cancer COLO-205, CCK-8 method): 125 nM
- IC50 [7]: 1510 nM
- IC50 [8]: 443 nM
- Proliferation inhibitory effect of the compounds on HL-60 cells (% of Control) ([9]; concentration 0.01 μM): 0 % of Control
- Proliferation inhibitory effect of the compounds on HL-60 cells (% of Control) ([9]; concentration 0.1 μM): 51.8 % of Control
- Proliferation inhibitory effect of the compounds on HL-60 cells (% of Control) ([9]; concentration 1 μM): 70.7 % of Control
- Proliferation inhibitory effect of the compounds on HL-60 cells (% of Control) ([9]; concentration 10 μM): 72.3 % of Control
- Proliferation inhibitory effect of the compounds on HL-60 cells (% of Control) ([9]; concentration 100 μM): 74.8 % of Control
- IC50 [10]: 646 nM
- IC50 [11]: 6080 nM
- Proliferation inhibitory effect of the compounds on A549 cells (% of Control) ([12]; CCK-8, 0.01 μM): 14.77 % of Control
- Proliferation inhibitory effect of the compounds on A549 cells (% of Control) ([12]; CCK-8, 0.1 μM): 19.35 % of Control
- Proliferation inhibitory effect of the compounds on A549 cells (% of Control) ([12]; CCK-8, 1 μM): 70.04 % of Control
- Proliferation inhibitory effect of the compounds on A549 cells (% of Control) ([12]; CCK-8, 10 μM): 87.64 % of Control
- Proliferation inhibitory effect of the compounds on A549 cells (% of Control) ([12]; CCK-8, 100 μM): 98.18 % of Control
- IC50 [12]: 715 nM
- IC50 [13]: 1360 nM
- IC50 [14]: < 10 nM
- IC50 [15]: 160 nM
- IC50 [16]: 196 nM
- IC50 [17]: 175 nM
- IC50 [18]: 167 nM
- IC50 [19]: 331 nM
- IC50 [20]: 1370 nM
- Proliferation inhibitory effect of the compounds on A549 cell (% of Control) ([21]; 0.01 μM): 12.1 % of Control
- Proliferation inhibitory effect of the compounds on A549 cell (% of Control) ([21]; 0.1 μM): 39.4 % of Control
- Proliferation inhibitory effect of the compounds on A549 cell (% of Control) ([21]; 1 μM): 74.8 % of Control
- Proliferation inhibitory effect of the compounds on A549 cell (% of Control) ([21]; 10 μM): 80.3 % of Control
- Proliferation inhibitory effect of the compounds on A549 cell (% of Control) ([21]; 100 μM): 98.2 % of Control

Structure (SMILES): CC(=O)O[C@H]1C(=O)[C@@]2(C)[C@H]([C@H](OC(=O)c3ccccc3)[C@]3(O)C[C@H](OC(=O)[C@H](O)[C@@H](NC(=O)c4ccccc4)c4ccccc4)C(C)=C1C3(C)C)[C@]1(OC(C)=O)CO[C@@H]1C[C@@H]2O [Taxol]
- IC50 ([1]; Homo sapiens): 3540 nM
- IC50 ([2]; Homo sapiens): > 100000 nM
- IC50 ([3]; Homo sapiens): < 10 nM
- IC50 ([4]; Homo sapiens, U-251): > 100000 nM
- IC50 ([5]; Homo sapiens, SK-HEP1): 47 nM
- IC50 ([6]; Homo sapiens, COLO 205, read-out: The half maximal inhibitory concentration (IC50)): < 10 nM
- IC50 ([7]; Homo sapiens): < 10 nM
- IC50 ([8]; Homo sapiens): 278 nM
- IC50 ([10]; Homo sapiens): 17400 nM
- IC50 ([11]; Homo sapiens): > 100000 nM
- IC50 ([12]; Homo sapiens): 83500 nM
- IC50 ([13]; Homo sapiens): 69000 nM
- IC50 ([14]; Homo sapiens): < 10 nM
- IC50 ([15]; Homo sapiens, A-375): 55300 nM
- IC50 ([16]; Homo sapiens): < 10 nM
- IC50 ([17]; Homo sapiens): 2020 nM
- IC50 ([18]; Homo sapiens): < 10 nM
- IC50 ([19]; Homo sapiens): < 10 nM
- IC50 ([20]; Homo sapiens): 420 nM
